# Measurements as given in ChEMBL document CHEMBL4024756, “Identification of 4-Phenoxyquinoline Based Inhibitors for L1196M Mutant of Anaplastic Lymphoma Kinase by Structure-Based Design” (J Med Chem, 2017).
# Columns and labels:
# NCI-H2228 = test: Antiproliferative activity against human NCI-H2228 cells after 72 hrs by MTT assay; details: NCI-H2228, 72 h
# [1] = Antiproliferative activity against human H2228/CR cells after 72 hrs by MTT assay; details: NCI-H2228, 72 h
# [2] = Half life in rat at 1 mg/kg, iv; format: ADME, organism-based; details: in vivo
# [3] = Tmax in rat at 1 mg/kg, iv; format: ADME, organism-based; details: in vivo
# [4] = Tmax in rat at 10 mg/kg, po; format: ADME, organism-based; details: in vivo
# [5] = Cmax in rat at 1 mg/kg, iv; format: ADME, organism-based; design: dose 1 mg/kg, route intravenous; details: in vivo
# [6] = Cmax in rat at 10 mg/kg, po; format: ADME, organism-based; design: dose 10 mg/kg, route oral; details: in vivo
# [7] = AUClast in rat at 1 mg/kg, iv; format: ADME, organism-based; design: dose 1 mg/kg, time 0 - last, route intravenous; details: in vivo
# [8] = AUClast in rat at 10 mg/kg, po; format: ADME, organism-based; design: dose 10 mg/kg, time 0 - last, route oral; details: in vivo
# [9] = Oral bioavailability in rat at 10 mg/kg; format: ADME, organism-based; details: in vivo
# [10] = biological target: Voltage-gated inwardly rectifying potassium channel KCNH2 (Homo sapiens, UniProt Q12809); test: Inhibition of human ERG by fluorescently labeled tracer binding method
# Chain of Voltage-gated inwardly rectifying potassium channel KCNH2 (Q12809 whole entry): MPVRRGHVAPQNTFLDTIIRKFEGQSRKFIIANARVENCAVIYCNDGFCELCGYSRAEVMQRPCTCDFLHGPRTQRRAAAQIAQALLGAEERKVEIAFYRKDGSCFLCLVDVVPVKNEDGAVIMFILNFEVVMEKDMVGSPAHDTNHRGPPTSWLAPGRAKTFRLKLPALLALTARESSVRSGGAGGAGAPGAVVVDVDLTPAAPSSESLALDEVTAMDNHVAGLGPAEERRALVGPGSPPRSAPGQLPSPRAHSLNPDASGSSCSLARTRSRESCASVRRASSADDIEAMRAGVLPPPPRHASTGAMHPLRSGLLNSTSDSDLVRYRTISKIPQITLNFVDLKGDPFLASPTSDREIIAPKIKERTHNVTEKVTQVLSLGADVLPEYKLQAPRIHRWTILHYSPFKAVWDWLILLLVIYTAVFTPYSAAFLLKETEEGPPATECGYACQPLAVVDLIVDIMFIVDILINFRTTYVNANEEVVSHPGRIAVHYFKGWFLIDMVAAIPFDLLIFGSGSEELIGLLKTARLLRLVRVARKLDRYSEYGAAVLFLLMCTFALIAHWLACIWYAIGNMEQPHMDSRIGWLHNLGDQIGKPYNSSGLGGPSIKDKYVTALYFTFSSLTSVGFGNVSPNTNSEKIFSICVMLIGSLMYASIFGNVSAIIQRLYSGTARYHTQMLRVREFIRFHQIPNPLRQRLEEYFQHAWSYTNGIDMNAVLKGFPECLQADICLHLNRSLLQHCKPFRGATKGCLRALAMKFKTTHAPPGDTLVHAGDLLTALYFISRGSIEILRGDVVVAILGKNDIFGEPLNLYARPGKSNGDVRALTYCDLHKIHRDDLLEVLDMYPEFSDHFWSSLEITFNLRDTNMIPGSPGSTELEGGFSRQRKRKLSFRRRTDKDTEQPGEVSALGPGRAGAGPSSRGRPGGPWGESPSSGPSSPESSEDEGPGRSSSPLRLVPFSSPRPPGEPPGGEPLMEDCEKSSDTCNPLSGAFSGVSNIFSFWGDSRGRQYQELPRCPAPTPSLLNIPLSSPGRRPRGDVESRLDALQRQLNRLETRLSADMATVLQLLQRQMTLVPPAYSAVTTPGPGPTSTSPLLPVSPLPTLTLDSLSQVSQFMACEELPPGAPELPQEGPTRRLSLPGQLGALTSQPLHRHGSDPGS
SMILES,IC50 (NCI-H2228),IC50 [1],half-life [2],Tmax [3],Tmax [4],Cmax [5],Cmax [6],AUC(0-t) [7],AUC(0-t) [8],bioavailability [9],IC50 [10]
C[C@@H](Oc1cc(-c2cnn(C3CCNCC3)c2)cnc1N)c1c(Cl)ccc(F)c1Cl [CRIZOTINIB],2500 nM,10000 nM,–,–,–,–,–,–,–,–,–
Cc1ccc(Oc2ccnc3cc(-c4cnn(C5CCNCC5)c4)ccc23)cc1,–,–,3.3 h,6 min,4 h,94.1 ng/mL,131 ng/mL,166 ng·h/mL,745 ng·h/mL,44.8%,–
Oc1ccc(Oc2ccnc3cc(-c4cnn(C5CCNCC5)c4)ccc23)cc1,–,–,3.5 h,6 min,6 h,83.5 ng/mL,78.4 ng/mL,155 ng·h/mL,384 ng·h/mL,24.8%,–
COc1ccc(Oc2ccnc3cc(-c4cnn(C5CCNCC5)c4)ccc23)cc1,–,–,10.7 h,6 min,4 h,48.9 ng/mL,83.9 ng/mL,95.9 ng·h/mL,437 ng·h/mL,45.5%,2460 nM
